Values after ≈ are worked out from the molar mass of the structure shown. Like-named read-outs stand apart in the source and are kept apart here.
Assays:
L. plantarum ATCC 8014 = test: MIC by broth microdilution; assay type: cell-based; settings: Lactiplantibacillus plantarum, ATCC8014; L. plantarum ATCC 8014; CAMHB with 5% laked horse blood, ~48 h; duplicate; read-out: MIC
B. subtilis ATCC 6051 = test: MIC by broth microdilution; assay type: cell-based; settings: Bacillus subtilis, ATCC6051; B. subtilis ATCC 6051; CAMHB, aerobic; duplicate; read-out: MIC
[1] = tested on: C. difficile isolate 20110740 (ribotype 018); test: MIC by broth microdilution; assay type: cell-based, Clostridium difficile; settings: Clostridioides difficile; isolate 20110740, ribotype 018; duplicate; read-out: MIC
S. aureus RN4220 = test: MIC by broth microdilution; assay type: cell-based; settings: Staphylococcus aureus, CAMHB, aerobic, duplicate
[2] = tested on: C. difficile isolate 20110973 (ribotype 106); test: MIC by broth microdilution; assay type: cell-based, Clostridium difficile; settings: Clostridioides difficile; isolate 20110973, ribotype 106; duplicate; read-out: MIC
A. baumannii M2 = test: MIC by broth microdilution; assay type: cell-based; settings: Acinetobacter baumannii; A. baumannii M2; CAMHB, aerobic; duplicate; read-out: MIC
[3] = tested on: C. difficile isolate 20110869 (ribotype 001_072); test: MIC by broth microdilution; assay type: cell-based, Clostridium difficile; settings: Clostridioides difficile; isolate 20110869, ribotype 001_072; duplicate; read-out: MIC
[4] = tested on: C. difficile isolate 20120016 (ribotype 019); test: MIC by broth microdilution; assay type: cell-based, Clostridium difficile; settings: Clostridioides difficile; isolate 20120016, ribotype 019; duplicate; read-out: MIC
[5] = tested on: C. difficile isolate 20121412 (ribotype 047); test: MIC by broth microdilution; assay type: cell-based, Clostridium difficile; settings: Clostridioides difficile; isolate 20121412, ribotype 047; duplicate; read-out: MIC
[6] = tested on: C. difficile isolate 20111163 (ribotype 024); test: MIC by broth microdilution; assay type: cell-based, Clostridium difficile; settings: Clostridioides difficile; isolate 20111163, ribotype 024; duplicate; read-out: MIC
[7] = tested on: C. clostridioforme ATCC 25537; test: MIC by broth microdilution; assay type: cell-based, Clostridium clostridioforme; settings: Clostridium, ATCC25537; C. clostridioforme ATCC 25537; BHIS, anaerobic; duplicate; read-out: MIC
P. nigrescens ATCC 33563 = test: MIC by broth microdilution; assay type: cell-based; settings: Prevotella nigrescens, ATCC33563; P. nigrescens ATCC 33563; supplemented Brucella broth, anaerobic; duplicate; read-out: MIC
[8] = tested on: B. thetaiotaomicron ATCC 29148; test: microbe, parasite or virus in culture; assay type: cell-based; settings: Bacteroides thetaiotaomicron, ATCC29148
C. difficile strain 4118 [9] = test: Time-kill kinetics against stationary-phase cultures; assay type: cell-based, Clostridium difficile
Experimental: At t = 0, 3, 6 and 24 h, sample aliquots were withdrawn from the treated cultures and bacterial viability was scored by plating serial dilutions on BHIS agar plates. The agar plates were incubated in the anaerobic chamber for 20–24 h at 37 °C. Kinetic experiments were performed at least twice.

16 C. difficile isolates = test: MIC by broth microdilution, summary over 16 C. difficile isolates; assay type: cell-based, Clostridium difficile; settings: for MIC50: MIC at which 50% of the 16 isolates are inhibited; for MIC90: MIC at which 90% of the 16 isolates are inhibited
[10] = tested on: C. difficile isolate 20110742 (ribotype 002); test: MIC by broth microdilution; assay type: cell-based, Clostridium difficile; settings: Clostridioides difficile; isolate 20110742, ribotype 002; duplicate; read-out: MIC
S. epidermidis 1457 = test: MIC by broth microdilution; assay type: cell-based; settings: Staphylococcus epidermidis; S. epidermidis 1457; CAMHB, aerobic; duplicate; read-out: MIC
[11] = tested on: L. johnsonii Strain 135-1-CHN; test: MIC by broth microdilution; assay type: cell-based; settings: Lactobacillus johnsonii, STRAIN1351CHN; L. johnsonii 135-1-CHN; CAMHB with 5% laked horse blood, ~48 h; duplicate; read-out: MIC
C. difficile strain 4118 [12] = test: Minimum bactericidal concentration (MBC), logarithmic- and stationary-phase cells; assay type: cell-based, Clostridium difficile; settings: 20–24 h; for MBC: Clostridioides difficile, 4118, n = 2
Experimental: The procedure for MBC determination was adapted from that of Alam et al.[44]. Briefly, a single overnight colony of C. difficile strain 4118 (streaked onto blood agar plate) was suspended in BHIS and grown to OD600 ~ 0.4–0.5 (logarithmic phase) or for 24 h (stationary phase). In 96-well microtiter plates, cultures were added to two-fold serial dilutions of test compounds in BHIS and incubated for 20–24 h at 37 °C in an anaerobic chamber. […] MBC measurements were performed in duplicate.

[13] = tested on: L. reuteri Strain CF48-3A; test: MIC by broth microdilution; assay type: cell-based, Lactobacillus reuteri; settings: Limosilactobacillus reuteri; L. reuteri CF48-3A; CAMHB with 5% laked horse blood, ~48 h; duplicate; read-out: MIC
[14] = tested on: C. difficile isolate 20121190 (ribotype 126); test: MIC by broth microdilution; assay type: cell-based, Clostridium difficile; settings: Clostridioides difficile; isolate 20121190, ribotype 126; duplicate; read-out: MIC
P. distasonis ATCC 8503 = test: MIC by broth microdilution; assay type: cell-based; settings: Parabacteroides distasonis, ATCC8503; P. distasonis ATCC 8503; supplemented Brucella broth, anaerobic; duplicate; read-out: MIC
[15] = tested on: C. difficile isolate 20110986 (ribotype 078); test: MIC by broth microdilution; assay type: cell-based, Clostridium difficile; settings: Clostridioides difficile; isolate 20110986, ribotype 078; duplicate; read-out: MIC
[16] = tested on: C. difficile isolate 20100584 (ribotype 014); test: MIC by broth microdilution; assay type: cell-based, Clostridium difficile; settings: Clostridioides difficile; isolate 20100584, ribotype 014; duplicate; read-out: MIC
[17] = tested on: C. difficile strain 4118 (CD4118, ATCC BAA-1870, ribotype 027); test: MIC by broth microdilution; assay type: cell-based, Clostridium difficile; settings: Clostridioides difficile, ATCCBAA1870; BHIS broth, anaerobic, 20–24 h, n = 2; read-out: MIC C. difficile 4118
[18] = tested on: B. fragilis Strain CL05T00C42; test: MIC by broth microdilution; assay type: cell-based; settings: Bacteroides fragilis; B. fragilis CL05T00C42; supplemented Brucella broth, anaerobic; duplicate; read-out: MIC
[19] = tested on: C. difficile isolate 20110960 (ribotype 017); test: MIC by broth microdilution; assay type: cell-based, Clostridium difficile; settings: Clostridioides difficile; isolate 20110960, ribotype 017; duplicate; read-out: MIC
[20] = tested on: B. breve Strain EX336960VC19; test: MIC by broth microdilution; assay type: cell-based; settings: Bifidobacterium breve; B. breve EX336960VC19; LSM broth, anaerobic; duplicate; read-out: MIC
[21] = tested on: B. longum subsp. longum Strain 44B; test: MIC by broth microdilution; assay type: cell-based; settings: Bifidobacterium longum; B. longum subsp. longum 44B; LSM broth, anaerobic; duplicate; read-out: MIC
[22] = tested on: C. difficile isolate 20100422 (ribotype 054); test: MIC by broth microdilution; assay type: cell-based, Clostridium difficile; settings: Clostridioides difficile; isolate 20100422, ribotype 054; duplicate; read-out: MIC
C. sporogenes ATCC 15579 = test: MIC by broth microdilution; assay type: cell-based; settings: Clostridium sporogenes, ATCC15579, BHIS, anaerobic, duplicate
P. aeruginosa PAO1 = test: MIC by broth microdilution; assay type: cell-based; settings: Pseudomonas aeruginosa; P. aeruginosa PAO1; CAMHB, aerobic; duplicate; read-out: MIC
[23] = tested on: C. difficile isolate 20110961 (ribotype A12); test: MIC by broth microdilution; assay type: cell-based, Clostridium difficile; settings: Clostridioides difficile; isolate 20110961, ribotype A12; duplicate; read-out: MIC
[24] = minimum bactericidal concentration (≥3-log reduction) for logarithmic-phase cells, read-out: MBClog
[25] = minimum bactericidal concentration (≥3-log reduction) for stationary-phase cells, read-out: MBCstat

Row | Structure (SMILES) | MIC (L. plantarum ATCC 8014) [µg/mL] | MIC (B. subtilis ATCC 6051) [µg/mL] | MIC [1] [µg/mL] | MIC (S. aureus RN4220) [µg/mL] | MIC [2] [µg/mL] | MIC (A. baumannii M2) [µg/mL] | MIC [3] [µg/mL] | MIC [4] [µg/mL] | MIC [5] [µg/mL] | MIC [6] [µg/mL] | MIC [7] [µg/mL] | MIC (P. nigrescens ATCC 33563) [µg/mL] | MIC [10] [µg/mL] | MIC (S. epidermidis 1457) [µg/mL] | MIC [11] [µg/mL] | MBC (C. difficile strain 4118 [12]; [24]) [µg/mL] | MBC (C. difficile strain 4118 [12]; [25]) [µg/mL] | MIC [13] [µg/mL] | MIC [14] [µg/mL] | MIC (P. distasonis ATCC 8503) [µg/mL] | other results
1 | O=C(Nc1ccc(Oc2ccc(Cl)cc2)cc1)c1cc(Cl)cc(Cl)c1O [Compound 8] | 16 (≈ 39.2 µM) | ≤ 0.03 | 0.06 (≈ 0.147 µM) | 0.13 (≈ 0.318 µM) | 0.03 (≈ 0.0734 µM) | 32 (≈ 78.3 µM) | 0.06 to 0.13 (≈ 0.147 to 0.318 µM) | 0.13 (≈ 0.318 µM) | 0.13 (≈ 0.318 µM) | 0.13 (≈ 0.318 µM) | 4 (≈ 9.79 µM) | 4 (≈ 9.79 µM) | 0.06 (≈ 0.147 µM) | ≤ 0.03 | 32 (≈ 78.3 µM) | 0.25 (≈ 0.612 µM) | 1 (≈ 2.45 µM) | 16 (≈ 39.2 µM) | 0.25 (≈ 0.612 µM) | 4 (≈ 9.79 µM) | MIC ([8]; B. thetaiotaomicron ATCC 29148, supplemented Brucella broth, anaerobic, duplicate, read-out: MIC): > 32 µg/mL; log decrease in the number of CFUs (C. difficile strain 4118 [9]; 4 × MIC, 24 h, stationary-phase CD4118): 2.4 log; time to eradicate >99.9% of viable cells (C. difficile strain 4118 [9]; 16× MIC (rafoxanide 2 μg/mL, closantel 4 μg/mL, compound 8 1 μg/mL), stationary-phase CD4118): 24 h; MIC (16 C. difficile isolates; Clostridioides difficile, 14 isolates other than CD630 and CD4118, read-out: MIC values ranging, 14 other C. difficile isolates): 0.03 to 0.25 µg/mL (≈ 0.0734 to 0.612 µM); MIC50 (16 C. difficile isolates; n = 2): 0.06 µg/mL (≈ 0.147 µM); MIC90 (16 C. difficile isolates; n = 2): 0.25 µg/mL (≈ 0.612 µM); MIC [15]: 0.06 µg/mL (≈ 0.147 µM); MIC [16]: 0.06 µg/mL (≈ 0.147 µM); MIC [17]: 0.06 µg/mL (≈ 0.147 µM); MIC [18]: 16 µg/mL (≈ 39.2 µM); MIC [19]: 0.06 µg/mL (≈ 0.147 µM); MIC [20]: 8 µg/mL (≈ 19.6 µM); MIC [21]: 8 µg/mL (≈ 19.6 µM); MIC [22]: 0.25 µg/mL (≈ 0.612 µM); MIC (C. sporogenes ATCC 15579): 4 µg/mL (≈ 9.79 µM); MIC (P. aeruginosa PAO1): > 32 µg/mL; MIC [23]: 0.13 µg/mL (≈ 0.318 µM)
2 | Cc1ncc([N+](=O)[O-])n1CCO [Metronidazole, metronidazole] | > 32 | > 32 | 0.25 (≈ 1.46 µM) | > 32 | 0.25 (≈ 1.46 µM) | > 32 | 0.25 (≈ 1.46 µM) | 0.25 (≈ 1.46 µM) | 0.25 (≈ 1.46 µM) | 0.13 (≈ 0.76 µM) | 0.06 (≈ 0.351 µM) | 2 (≈ 11.7 µM) | 0.13 (≈ 0.76 µM) | > 32 | > 32 | > 32 | > 32 | > 32 | 0.13 (≈ 0.76 µM) | 2 (≈ 11.7 µM) | MIC [8]: 1 µg/mL (≈ 5.84 µM); log killing of CD4118 stationary-phase cells (C. difficile strain 4118 [9]; 16× MIC (metronidazole 4 μg/mL, vancomycin 32 μg/mL), up to 24 h): < 3 log; MIC50 (16 C. difficile isolates; Clostridioides difficile, n = 2, read-out: MIC50): 0.25 µg/mL (≈ 1.46 µM); MIC90 (16 C. difficile isolates; Clostridioides difficile, n = 2, read-out: MIC90): 0.25 µg/mL (≈ 1.46 µM); MIC Range (16 C. difficile isolates; range over 16 C. difficile isolates, n = 2): 0.13 to 0.25 µg/mL; log reduction of CD4118 stationary-phase cells (C. difficile strain 4118 [12]; at 32 μg/mL): < 3 log; MIC [15]: 0.13 to 0.25 µg/mL (≈ 0.76 to 1.46 µM); MIC [16]: 0.25 µg/mL (≈ 1.46 µM); MIC [17]: 0.25 µg/mL (≈ 1.46 µM); MIC [18]: 0.5 µg/mL (≈ 2.92 µM); MIC [19]: 0.25 µg/mL (≈ 1.46 µM); MIC [20]: > 32 µg/mL; MIC [21]: 4 to 8 µg/mL (≈ 23.4 to 46.7 µM); MIC [22]: 0.25 µg/mL (≈ 1.46 µM); MIC (C. sporogenes ATCC 15579): 0.25 µg/mL (≈ 1.46 µM); MIC (P. aeruginosa PAO1): > 32 µg/mL; MIC [23]: 0.25 µg/mL (≈ 1.46 µM)

From PMC5025651, “Reprofiled anthelmintics abate hypervirulent stationary-phase Clostridium difficile” (Scientific Reports, 2016)
